From patent publication US20250160324A1, “ACIDIFIED OLEOGEL AND METHODS OF USE” (University of Massachusetts, priority 2023, published 2025)

Assays:
[1] = test system: desiccated Salmonella enterica subsp. enterica serovar Enteritidis phage type 30 (ATCC BAA-1045); assay: Antimicrobial assay against cells desiccated on stainless-steel coupons; assay type: cell-based; conditions: 200 mM organic acid, 30-min contact; for MLR ± SD, W/O emulsion, 22° C. / MLR ± SD, W/O emulsion, 45° C.: 1% v/v water; for MLR ± SD, W/O emulsion, 22° C. / MLR ± SD, W/O emulsion, 45° C. / MLR ± SD, W/O emulsion with glycerol, 22° C. / MLR ± SD, W/O emulsion with glycerol, 45° C.: 75% ERH; for MLR ± SD, Oil with PGPR, 22° C. / MLR ± SD, Oil with PGPR, 45° C.: cells desiccated to 75% ERH
[2] = Water activity (aw) by Dewpoint aw meter; assay type: physicochemical; conditions: 200 mM organic acid

Compound | MLR ± SD, W/O emulsion, 22° C. [1] | MLR ± SD, W/O emulsion, 45° C. [1] | MLR ± SD, W/O emulsion with glycerol, 22° C. [1] | MLR ± SD, W/O emulsion with glycerol, 45° C. [1] | MLR ± SD, Oil with PGPR, 22° C. [1] | MLR ± SD, Oil with PGPR, 45° C. [1] | measured solution aw of acidified oil [2] | MLR ± SD, Oil with PGPR, 22° C. ([1]; listed as C2) | MLR ± SD, Oil with PGPR, 45° C. ([1]; listed as C2) | MLR ± SD, Oil with PGPR, 22° C. ([1]; listed as C3) | MLR ± SD, Oil with PGPR, 45° C. ([1]; listed as C3)
CCCCCCCCCCCC(=O)O [Lauric, lauric/dodecanoic acid] | 1.05 ± 0.28 | >6.52 | 0.49 ± 0.12 | 1.02 ± 0.04 | 0.16 ± 0.06 | 0.40 ± 0.17 | – | – | – | – | –
CCCCCC(=O)O [Caproic, caproic/hexanoic acid] | 0.72 ± 0.18 | >6.52 | 0.10 ± 0.03 | 0.74 ± 0.48 | 0.21 ± 0.09 | 0.68 ± 0.08 | – | – | – | – | –
CCCC(=O)O [Butyric, butyric/butanoic acid] | 0.55 ± 0.06 | >6.52 | 0.31 ± 0.16 | 1.40 ± 0.31 | – | 0.52 ± 0.13 | – | – | – | – | –
O=CO [Formic, formic/methanoic acid] | – | – | – | – | – | – | 0.51 | – | – | – | –
CC(=O)O [Acetic, acetic/ethanoic acid] | >6.52 | >6.52 | 0.81 ± 0.24 | 2.53 ± 0.75 | 0.69 ± 0.19 | 1.42 ± 0.14 | – | 0.69 | 1.42 | – | –
CCCCCCCCCCC(=O)O [Undecylic, undecylic/undecanoic acid] | 0.38 ± 0.09 | >6.52 | – | 0.22 ± 0.18 | – | 0.31 ± 0.03 | – | – | – | – | –
CCCCCCCCC(=O)O [Pelargonic, pelargonic/nonanoic acid] | 0.31 ± 0.10 | >6.52 | – | 0.30 ± 0.09 | – | 0.39 ± 0.11 | – | – | – | – | –
CCCCC(=O)O [Valeric, valeric/pentanoic acid] | 0.11 ± 0.05 | >6.52 | – | 1.12 ± 0.16 | – | 0.31 ± 0.02 | – | – | – | – | –
CCCCCCC(=O)O [Enanthic, enanthic/heptanoic acid] | 0.34 ± 0.26 | >6.52 | – | 0.79 ± 0.22 | – | 0.34 ± 0.03 | – | – | – | – | –
CCCCCCCCCC(=O)O [Capric, capric/decanoic acid] | 0.67 ± 0.17 | >6.52 | 0.37 ± 0.06 | 0.57 ± 0.09 | 0.23 ± 0.04 | 0.28 ± 0.09 | – | – | – | – | –
CCCCCCCC(=O)O [Caprylic, caprylic/octanoic acid] | 0.94 ± 0.26 | >6.52 | 0.56 ± 0.18 | 0.74 ± 0.11 | – | 0.49 ± 0.26 | – | – | – | – | –
CCC(=O)O [Propionic, propionic/propanoic acid] | >6.52 | >6.52 | 0.73 ± 0.22 | 1.41 ± 0.66 | 0.89 ± 0.24 | 1.11 ± 0.27 | – | – | – | 0.89 | 1.11
